Measurements taken from US8232283B2, “Raf inhibitors” (Forma Therapeutics, Inc., priority 2008, dated 2012).
Like-named read-outs stand apart in the source and are kept apart here.

How the values were obtained:
[1] = biological target: B-Raf (V600E) (Homo sapiens, UniProt P15056, V600E); test: SelectScreen Kinase Profiling Service (Invitrogen), IC50 with or without 5 h preincubation of kinase/test compound; assay type: biochemical
Procedure: (§1) d) B-Raf/B-Raf (V600E) (SelectScreen™ Assay)
(§2) Selected compound of the present invention were tested in the Select Screen™ Kinase Profiling Service (Invitrogen Corporation, Madison, Wis. 53719, USA) against B-Raf and the B-Raf (V600E) [“V599E” in terminology used by Invitrogen], under conditions of non-disclosure, non-dissemination and non-use.
(§3) In brief, compounds 11 and 39 (see Table 1) were tested at Invitrogen against B-Raf and the B-Raf (V600E), either with or without preincubation of kinase/test compound for 5 hours.

[2] = biological target: B-Raf (Homo sapiens, UniProt P15056); test: as above; assay type: biochemical
Chain of B-Raf (P15056 whole entry): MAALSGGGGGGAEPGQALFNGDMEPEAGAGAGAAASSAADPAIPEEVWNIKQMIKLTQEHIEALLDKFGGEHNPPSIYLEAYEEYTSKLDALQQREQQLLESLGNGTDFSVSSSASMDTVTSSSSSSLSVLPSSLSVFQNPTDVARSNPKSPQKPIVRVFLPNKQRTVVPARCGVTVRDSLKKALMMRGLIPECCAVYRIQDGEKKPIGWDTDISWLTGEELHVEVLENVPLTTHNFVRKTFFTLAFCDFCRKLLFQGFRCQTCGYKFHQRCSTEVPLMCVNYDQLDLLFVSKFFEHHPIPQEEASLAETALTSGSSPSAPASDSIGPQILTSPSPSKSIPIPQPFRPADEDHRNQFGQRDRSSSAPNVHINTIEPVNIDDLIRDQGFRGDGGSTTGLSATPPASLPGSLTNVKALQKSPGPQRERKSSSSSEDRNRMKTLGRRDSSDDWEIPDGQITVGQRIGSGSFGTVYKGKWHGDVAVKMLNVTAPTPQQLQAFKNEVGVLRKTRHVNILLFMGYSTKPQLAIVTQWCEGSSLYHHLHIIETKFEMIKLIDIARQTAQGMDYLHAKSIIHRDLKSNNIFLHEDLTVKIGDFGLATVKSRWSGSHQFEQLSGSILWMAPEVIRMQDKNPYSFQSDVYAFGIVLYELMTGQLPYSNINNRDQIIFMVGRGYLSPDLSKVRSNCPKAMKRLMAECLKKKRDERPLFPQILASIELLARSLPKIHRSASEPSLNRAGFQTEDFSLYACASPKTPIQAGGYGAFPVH
Procedure: as §1, §2, §3

[3] = biological target: T1, p38 (Homo sapiens, UniProt Q16539); test: Biochemical inhibition, standard selectivity panel (Proteros); design: dose or concentration left out as unconfirmed
T1 construct: purchased Proteros biostructures GmbH (selectivity panel service)
T1 sequence (Q16539 whole entry): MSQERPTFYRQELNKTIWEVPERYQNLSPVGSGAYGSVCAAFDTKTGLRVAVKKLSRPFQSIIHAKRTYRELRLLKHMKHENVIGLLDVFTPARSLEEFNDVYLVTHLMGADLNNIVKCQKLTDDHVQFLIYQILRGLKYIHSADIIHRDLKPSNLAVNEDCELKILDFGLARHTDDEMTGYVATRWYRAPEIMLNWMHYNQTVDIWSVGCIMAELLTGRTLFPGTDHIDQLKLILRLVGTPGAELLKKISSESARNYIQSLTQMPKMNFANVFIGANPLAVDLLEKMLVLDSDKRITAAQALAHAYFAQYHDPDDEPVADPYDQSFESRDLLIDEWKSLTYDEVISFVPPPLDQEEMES
Procedure: (§4) For example, selected compound of the present invention were tested in a standard selectivity panel including c-Raf, p38, and 22 other kinases (Proteros biostructures GmbH, Martinsried/Munich, Germany), under conditions of non-disclosure, non-dissemination and non-use.
(§5) In brief, selected compounds of the present invention were tested […] in triplicates against c-Raf, p38 as well as against Ab1, Akt1, Aur A, c-Kit, c-Raf, Cdk1/CycB, Chk1, FGFR3, Flt3, Fyn, IGF1-R, INSR, Lyn, MAPK-ERK1, PAK-4, PKCalpha, Plk1, Ret, ROCK2, RSK 1, c-Src, TIE2, and VEGF-R2.

[4] = biological target: T2, C-Raf (Homo sapiens, UniProt P04049); test: as above; design: dose or concentration left out as unconfirmed
T2 construct: purchased Proteros biostructures GmbH (selectivity panel service)
T2 sequence (P04049 whole entry): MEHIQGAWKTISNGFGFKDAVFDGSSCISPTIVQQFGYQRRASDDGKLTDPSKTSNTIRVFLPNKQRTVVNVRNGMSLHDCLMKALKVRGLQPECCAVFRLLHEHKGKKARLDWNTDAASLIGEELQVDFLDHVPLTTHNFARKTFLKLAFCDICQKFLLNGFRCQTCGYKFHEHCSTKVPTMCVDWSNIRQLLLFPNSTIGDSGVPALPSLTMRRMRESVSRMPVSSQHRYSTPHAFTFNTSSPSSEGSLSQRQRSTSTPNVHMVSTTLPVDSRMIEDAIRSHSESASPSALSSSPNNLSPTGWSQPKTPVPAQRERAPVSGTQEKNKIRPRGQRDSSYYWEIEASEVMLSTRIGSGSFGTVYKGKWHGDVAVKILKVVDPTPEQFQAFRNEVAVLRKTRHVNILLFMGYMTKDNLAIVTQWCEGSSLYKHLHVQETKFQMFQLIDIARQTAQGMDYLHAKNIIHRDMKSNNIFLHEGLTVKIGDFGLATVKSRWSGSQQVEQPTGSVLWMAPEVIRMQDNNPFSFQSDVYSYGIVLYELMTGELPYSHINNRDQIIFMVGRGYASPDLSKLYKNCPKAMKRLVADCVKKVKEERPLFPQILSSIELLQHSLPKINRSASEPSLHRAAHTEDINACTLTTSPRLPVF
Procedure: as §4, §5

[5] = system: A-431 [B-Raf wildtype]; test: Anti-proliferative activity, SRB assay, 72 hours; assay type: cell-based; conditions: Homo sapiens, read-out: CELLULAR IC50 [μM] A-431 [B-Raf wildtype]
In short: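 Cells seeded 24 h before compound, then exposed to a concentration range for 72 h. TCA-fixed, stained with sulforhodamine B, bound dye solubilized in 10 mM Trizma and read at OD520. IC50 from % inhibition of proliferation vs DMSO-treated cells.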

[6] = system: HT-29 [B-Raf V600E mutant]; test: Anti-proliferative activity, SRB assay, 72 hours; assay type: cell-based; conditions: Homo sapiens, read-out: CELLULAR IC50 [μM] HT-29 [B-Raf V600E mutant]
In short: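 HT-29 cells, plated 24 h before dosing, exposed to a concentration range of compound for 72 h. Proliferation measured by sulforhodamine B staining after TCA fixation, absorbance at 520 nm; % inhibition versus DMSO-treated cells used to estimate IC50.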

[7] = 5 h preincubation of kinase/test compound, read-out: IC50 [nM] B-Raf (V600E) 5 h preincub.
[8] = without preincubation of kinase/test compound, read-out: IC50 [nM] B-Raf (V600E) w/o preincub.
[9] = 5 h preincubation of kinase/test compound, read-out: IC50 [nM] B-Raf 5 h preincub.
[10] = without preincubation of kinase/test compound, read-out: IC50 [nM] B-Raf w/o preincub.

Chain of B-Raf (V600E) (P15056 whole entry V600E): as the sequence (P15056 whole entry) above, with V600E counted along it

| SMILES | IC50 [1, 7] | IC50 [1, 8] | IC50 [2, 9] | IC50 [2, 10] | inhibition [3] | inhibition [4] | IC50 [5] | IC50 [6] |
| --- | --- | --- | --- | --- | --- | --- | --- | --- |
| COn1c(=O)c(-c2cc(NC(=O)c3ccc(Oc4ccccc4)cc3)ccc2Cl)cc2cnc(NCCN(C)C)nc21 [Compound 27, N-{4-Chloro-3-[2-(2-dimethylamino-ethylamino)-8-methoxy-7-oxo-7,8-dihydro-pyrido[2,3-d]pyrimidin-6-yl]-phenyl}-4-phenoxy-benzamide] | – | – | – | – | > 70% | > 70% | < 10 µM | < 5 µM |
| COn1c(=O)c(-c2cc(NC(=O)c3cc(C(C)(C)C)nn3-c3ccccc3)ccc2Cl)cc2cnc(NCCN(C)C)nc21 [Compound 31, 5-tert-Butyl-2-phenyl-2H-pyrazole-3-carboxylic acid {4-chloro-3-[2-(2-dimethylamino-ethylamino)-8-methoxy-7-oxo-7,8-dihydro-pyrido[2,3-d]pyrimidin-6-yl]-phenyl}-amide] | – | – | – | – | > 70% | ~70% | < 10 µM | < 5 µM |
| COn1c(=O)c(-c2cc(NC(=O)c3ccc(F)c(C(F)(F)F)c3)ccc2Cl)cc2cnc(NCCN(C)C)nc21 [Compound 17, N-{4-Chloro-3-[2-(2-dimethylamino-ethylamino)-8-methoxy-7-oxo-7,8-dihydro-pyrido[2,3-d]pyrimidin-6-yl]-phenyl)-4-fluoro-3-trifluoromethyl-benzamide] | – | – | – | – | > 70% | > 70% | > 10 µM | < 5 µM |
| COn1c(=O)c(-c2cc(NC(=O)c3cc(C(F)(F)F)ccc3F)ccc2Cl)cc2cnc(NCCN(C)C)nc21 [Compound 23, N-{4-Chloro-3-[2-(2-dimethylamino-ethylamino)-8-methoxy-7-oxo-7,8-dihydro-pyrido[2,3-d]pyrimidin-6-yl]-phenyl]-2-fl uoro-5-trifluoromethyl-benzamide] | – | – | – | – | > 70% | > 70% | > 10 µM | < 5 µM |
| COn1c(=O)c(-c2cc(NC(=O)c3cc(C(C)(C)C)nn3C)ccc2Cl)cc2cnc(NCCN(C)C)nc21 [Compound 11, 5-tert-Butyl-2-methyl-2H-pyrazole-3-carboxylic acid {4-chloro-3-[2-(2-dimethylamino-ethylamino)-8-methoxy-7-oxo-7,8-dihydro-pyrido[2,3-d]pyrimidin-6-yl]-phenyl}-amide] | < 100 nM | < 100 nM | < 250 nM | < 250 nM | – | – | > 10 µM | < 10 µM |
| COn1c(=O)c(-c2cc(NC(=O)c3ccc(Cl)c(OC(F)(F)F)c3)ccc2Cl)cc2cnc(NCCN(C)C)nc21 [Compound 30, 4-Chloro-N-(4-chloro-3-[2-(2-dimethylamino-ethylamino)-8-methoxy-7-oxo-7,8-dihydro-pyrido[2,3-d]pyrimidin-6-yl]-phenyl}-3-trifluoromethoxy-benzamide] | – | – | – | – | > 70% | > 70% | > 10 µM | < 5 µM |

The next lines start with the values.

| IC50 [1, 7] | IC50 [1, 8] | IC50 [2, 9] | IC50 [2, 10] | inhibition [3] | inhibition [4] | IC50 [5] | IC50 [6] | SMILES |
| --- | --- | --- | --- | --- | --- | --- | --- | --- |
| < 5 nM | < 5 nM | < 10 nM | < 10 nM | > 70% | > 70% | > 10 µM | < 5 µM | COn1c(=O)c(-c2cc(NC(=O)c3cccc(C(F)(F)F)c3F)ccc2Cl)cc2cnc(NCCN(C)C)nc21 [Compound 39, N-{4-Chloro-3-[2-(2-dimethylamino-ethylamino)-8-methoxy-7-oxo-7,8-dihydro-pyrido[2,3-d]pyrimidin-6-yl]-phenyl}-2-fluoro-3-trifluoromethyl-benzamide] |
| – | – | – | – | > 70% | > 70% | > 10 µM | < 5 µM | COn1c(=O)c(-c2cc(NC(=O)c3cc(Cl)nc(NC(C)C)c3)ccc2Cl)cc2cnc(NCCN(C)C)nc21 [Compound 64, 2-Chloro-N-(4-chloro-3-(2-(2-(dimethylamino)ethylamino)-8-methoxy-7-oxo-7,8-dihydropyrido[2,3-d]pyrimidin-6-yl)phenyl)-6-isopropylamino-isonicotinamide] |
| – | – | – | – | > 70% | > 70% | < 10 µM | < 5 µM | COn1c(=O)c(-c2cc(NC(=O)Nc3ccc(F)c(C(F)(F)F)c3)ccc2Cl)cc2cnc(NCCN(C)C)nc21 [Compound 42, 1-{4-Chloro-3-[2-(2-dimethylamino-ethylamino)-8-methoxy-7-oxo-7,8-dihydro-pyrido[2,3-d]pyrimidin-6-yl]-phenyl}-3-(4-fluoro-3-trifluoromethyl-phenyl)-urea] |
| – | – | – | – | > 70% | > 70% | > 10 µM | < 5 µM | COn1c(=O)c(-c2cc(NC(=O)c3cc(Cl)nc(N4CCOCC4)c3)ccc2Cl)cc2cnc(NCCN(C)C)nc21 [Compound 61, 2-Chloro-N-(4-chloro-3-(2-(2-(dimethylamino)ethylamino)-8-methoxy-7-oxo-7,8-dihydropyrido[2,3-d]pyrimidin-6-yl)phenyl)-6-morpholin-4-yl-isonicotinamide] |
